Experimental findings from patent publication US4371673A, “Water soluble forms of retinoids” (The United States of America as represented by the …, priority 1980, dated 1983) are described below.

Converted amounts (≈) assume the structure as drawn. “And” between values parts separate entries of the source, which are not always exact repeats. Equal values may be shown once. Read-outs that look alike come from different tables or passages of the source.

Data set [1] is described as follows: Direct solubilization of retinoids by cyclodextrins and their derivatives. The class given is physicochemical. The following applies: read-out: Solubility of retinoid in physiological buffered saline. From the text: It has been discovered that by appropriately selecting a derivatized cyclodextrin, it is unnecessary to prepare a retinoid-polymer compound preliminary to, or concurrent with, the preparation of the complex. This greatly simplifies the process of dissolving a retinoid. Thus, to prepare a solution of the cyclodextrin retinoid complex, it is merely necessary to add the components, retinoid and cyclodextrin, with stirring to an aqueous medium, such as a saline or isotonic solution, at room temperature. If one has a suitable cyclodextrin available, it is unnecessary to synthesize the cyclodextrin retinoid-polymer.
Some examples of the solubility obtained for retinoid-dextrin complexes of the present invention in physiologically acceptable solutions are presented in Table 1. It may be noted that while the solubility of a complex of one retinoid with a particular cyclodextrin may not be great, the solubility of a complex of another retinoid, using the same cyclodextrin, may be increased several orders of magnitude.
Solubility of retinoid (μg/ml)
in physiological buffered saline
(NaCl, 8 g/L; Na2 HPO4.7H2 O,
2.2g/L; KCl, 0.2 g/L and […]

Data set [2] has as its system vitamin A-deficient rats. The data set can be described thus: Vitamin A-like activity measured by survival of rats fed vitamin A-deficient diet. The class given is in vivo, rat (male weanling albino, Holtzman). The following applies: for No. of surviving animals/total: 100 μg retinal equivalent for complex. On the procedure: Studies were undertaken to determine whether the chemical modification of retinoids to polymer-linked water soluble forms alter its biological activities. Specifically, the vitamin A-like activity of the mixed α-, β-dextrin complex of retinal-carboxymethyldextran hydrazone was tested on rats made vitamin A-deficient. The "animals" referred to herein should be construed as meaning rats.
To prepare the rats for dietary studies, male weanling albino rats of the Holtzman string were fed a vitamin A-deficient diet until a weight plateau was reached. A cyclic program was then begun in which the rats which were provided with the deficient diet were supplemented with retinoic acid at a rate of 2 μg per g. This was continued for 18 days followed by 10 days of the original deficient diet. At the termination of the fourth 18-day period in which the rats were fed the retinoic acid supplemented diet, the rats were fed for 7 days with the deficient diet and then used in two types of experiments: (a) Studies of the resorption of retinal-carboxymethyldextran hydrazone from the gastrointestinal tract and (b) studies of growth support for avitamineosis. The results of the resorption studies (a) were determined by spectrophotometrically analyzing for retinol in the serum or liver. The vitamin A-like activity of the complexes of the present invention (b) was evaluated by comparison of survival rates of a control group, those fed a cyclodextrin complex of a retinoid-polymer and those fed a free retinoid derivative.
^a The control rats received 0.2 mL of cottonseed oil
intraperitoneally while the treated animals received […] of retinyl
acetate or retinoic acid in 0.2 mL cottonseed oil or retinaldextran
complex (100 μg of retinal equivalent) in 0.2 mL water. Subsequently,
the rats received a vitamin Adeficient diet for periods indicated in the
Table and their survival was followed.
In the second series of experiments, compared in Table 2, the retinal-carboxymethyldextran complex was administered intraperitoneally and the survival of the vitamin A-deficient rats was followed during the 28 to 35 days of a vitamin A-deficient diet. […] In contrast, the control rats as well as those rats which received retinoic acid (Experiment 3) died.

Data set [3] relates to vitamin A-deficient rats. The data set can be described thus: Retinol in serum and liver of treated vitamin A-deficient rats (spectrophotometric), resorption studies. On the set-up: species or system rat (male weanling albino, Holtzman). The following applies: rat, in vivo, ip.
In a further data set the test system is S91 melanoma cells. The experiment in a line: S91 melanoma cell proliferation (growth inhibition). It counts as cell-based. To be noted: for inhibition at 0.2 µM: Mus musculus, S91, 144 h, read-out: Percentage of growth inhibition. The procedure: Medium was chaged on Day 3. The cells were treated for 6 days
Another data set is described as follows: in vitro. To be noted: mouse, s9. From the text:
Decreased plating efficiency and cell lysis are considered indications of cytotoxic effects.

The nature of the next data set: physchem. To be noted: isotonic buffered saline.
Setting [4] is: buffered saline with α-cyclodextrin, α-cyclodextrin, 50 mg/ml.
Where [5] appears, read: buffered saline with β-cyclodextrin, β-cyclodextrin, 17 mg/ml.
Where [6] appears, read: physiological buffered saline, dodecakis-2,6-O-methyl-α-cyclodextrin, 25 mg/ml.
[7] abbreviates: physiological buffered saline, hexadecakis-2,6-O-methyl-γ-cyclodextrin, 25 mg/ml.
[8] abbreviates: physiological buffered saline, solubilization agent: none.
The mark [9] stands for this setting: physiological buffered saline, tetradecakis-2,6-O-methyl-β-cyclodextrin, 50 mg/ml.
The mark [10] stands for this setting: physiological buffered saline, γ-cyclodextrin, 50 mg/ml.

What is called solubility is the dissolved amount per volume that the medium holds. The term inhibition denotes the relative decrease from the control value, in per cent.

Text for physchem: The concentration of retinal in the complex was estimated by comparison of the absorbance at the peak of the absorbance spectrum with the absorbance of free retinal in ethanol at 380 nm.

`CC1=C(/C=C/C(C)=C/C=C/C(C)=C/C(=O)O)C(C)(C)CCC1` [retinoic acid]: the solubility in data set [1] (setting [4]) was 140 µg/mL (≈ 466 µM); in data set [1] (setting [5]), 2000 µg/mL (≈ 6660 µM); in data set [1] (setting [6]), 460 µg/mL (≈ 1530 µM); in data set [1] (setting [7]), 140 µg/mL (≈ 466 µM); in data set [1] (setting [8]), 20 µg/mL (≈ 66.6 µM); in data set [1] (setting [9]), 460 µg/mL (≈ 1530 µM). Also, in data set [1] (setting [10]), the solubility came to 130 µg/mL (≈ 433 µM). Besides, the “day of death of animals” value in the data set on vitamin A-deficient rats [2] (Experiment 3, individual animals) is 14 days and 28 days and 30 days. Besides, the “No. of surviving animals/total” value with vitamin A-deficient rats [2] (Experiment 3, 31 days on vitamin A-deficient diet, intraperitoneal) was 0/3. Besides, the “survival / vitamin A-like activity (in words)” value in the data set on vitamin A-deficient rats [2] (intraperitoneal, 28 to 35 days of vitamin A-deficient diet) is given as “died”. Also, the “Serum retinol (in words)” value in the data set on vitamin A-deficient rats [3] is recorded as “not detectable”.

Take `CC(=O)OC/C=C(C)/C=C/C=C(C)/C=C/C1=C(C)CCCC1(C)C` [Retinyl acetate]: the “No. of surviving animals/total” value in the data set on vitamin A-deficient rats [2] (Experiment 1, 35 days on vitamin A-deficient diet, intraperitoneal) is 3/3; in the data set with vitamin A-deficient rats [2] (Experiment 2, 28 days on vitamin A-deficient diet, intraperitoneal) it was 4/4.

Consider `CC1=C(/C=C/C(C)=C/C=C/C(C)=C/C=O)C(C)(C)CCC1` [retinal], for which the solubility was 4 µg/mL (≈ 14.1 µM) in data set [1] (setting [4]); 2 µg/mL (≈ 7.03 µM) in data set [1] (setting [5]); 7 µg/mL (≈ 24.6 µM) in data set [1] (setting [6]); 4 µg/mL (≈ 14.1 µM) in data set [1] (setting [7]); < 1 µg/mL in data set [1] (setting [8]); 570 µg/mL (≈ 2000 µM) in data set [1] (setting [9]). In addition, the solubility in data set [1] (setting [10]) is 1 µg/mL (≈ 3.52 µM); in the data set “physchem”, < 0.01 µg/mL. The “growth rate of cells after 48 hours (in words)” value in the data set with S91 melanoma cells (48 hours, retinal 1 μM, complex 10 μM retinal moiety, FIG. 3, vs untreated controls) is “reduced in comparison to the untreated controls”. Also, the “growth inhibition, dose dependence (in words)” value in the data set on S91 melanoma cells (6 days, below 2 μM (retinal) and 40 μM (complex), FIG. 2) is reported as “dose-dependent inhibition”. For the same compound, the inhibition at 0.2 µM was 28% with S91 melanoma cells (0.2 μM, 6 days) and 52% with S91 melanoma cells (second retinal line, printed 0.2 μM, 6 days). Further, the “relative potency as growth inhibitor (in words)” value in the data set with S91 melanoma cells (all concentrations where retinal is not toxic) was “more potent inhibitor than the corresponding complex”. In addition, the “inhibition of cell proliferation, first 24 hours (in words)” value in the data set on S91 melanoma cells (first 24 hours, retinal 1 μM, complex 10 μM retinal moiety, FIG. 3) was “no apparent inhibition of cell proliferation”. The same compound had a CC50 in “in vitro” of 4 µM. Further, the MCC in “in vitro” is ≥ 10 µM. Also, in the data set “in vitro”, the MNTC was 2000 nM.
